Laboratory results: US20220194938A1, “NOVEL COMPOUNDS AND PHARMACEUTICAL COMPOSITIONS THEREOF FOR THE TREATMENT OF INFLAMMATORY DISORDERS” (GALAPAGOS NV, priority 2019, published 2022)
Read-outs that look alike come from different tables or passages of the source.

Columns and labels:
[1] = tested on: Collagen Induced Arthritis (CIA); test: Mouse collagen induced arthritis (CIA) model; type: in vivo; conditions: mouse CIA, 3, 10 and 30 mg/kg b.i.d., versus disease vehicle group
Procedure: 5.1. CIA Model 5.1.1. Materials Completed Freund's adjuvant (CFA) and incomplete Freund's adjuvant (IFA) were purchased from Difco. Bovine collagen type II (CII), lipopolysaccharide (LPS), and Enbrel was obtained from Chondrex (Isle d'Abeau, France); Sigma (P4252, L'Isle d'Abeau, France), […] (25 mg injectable syringe, France) Acros Organics (Palo Alto, Calif.), respectively. All other reagents used were of reagent grade and all solvents were of analytical grade. 5.1.2. Animals DBA1/J mice (male, 7-8 weeks old) were obtained from Charles River Laboratories (France). Mice were kept on a 12 h light/dark cycle (07 h00-19 h00). Temperature was maintained at 22° C., and food and water were provided ad libitum. 5.1.3. Collagen Induced Arthritis (CIA) One day before the experiment, CII solution (2 mg/mL) was prepared with 0.05 M acetic acid and stored at 4° C. Just before the immunization, equal volumes of adjuvant (IFA) and CII were mixed by a homogenizer in a pre-cooled glass bottle in an ice water bath. Extra adjuvant and prolonged homogenization may be required if an emulsion was not formed. […] Body weight and clinical score, were recorded twice a week. […] Clinical Assessment of Arthritis Arthritis is scored according to the method of (Khachigian 2006; Lin et al. 2007; Nishida et al. 2004). […] Results For each readout, mean and sem were calculated. […]

[2] = tested on: THP-1-Lucia NFκB cells; test: NFκB-reporter assay in THP1-Lucia NFκB cells (LPS, IL-1β, TNFα trigger); type: cell-based; conditions: 24 h
Description: This assay was used to evaluate the IRAK4 selectivity and potency of the compounds of the invention upon IRAK4 dependent (LPS and IL-1β) and independent triggering (TNFα), in a THP1-Lucia NFκB reporter assay.
THP-1-Lucia NFκB cells (Invivogen—5, rue Jean Rodier 31400 Toulouse France—cat #thp1-nfkb) were cultivated as recommended by the supplier using split cycles each cycle comprising a succession of thawing/expansion/seeding. The data reported were generated using cells having between 3 to 9 cycles. On the day of the experiment THP-1-Lucia NFκB cells were counted and seeded at a density of 1,000,000 cells/mL in culture medium (RPMI 1640 (Gibco, Cat #52400-025)+10% FBS (Sigma, Cat #F7524-500ML)+1% P/S (Gibco, Cat #15140-122)) by pipetting 54 μL/well in a 384 well plate. Thereafter, 6 μL of a 10× trigger solution was added to all wells, at final concentrations of 2.5, 10 and 3 ng/mL for respectively LPS, TNFα and IL-1β, except for ‘no trigger wells’ where 6 μL culture medium only was added.
After trigger addition, compounds were added with a digital compound dispenser, in an 8-points concentration range, using 3-fold dilution steps and normalizing the final DMSO concentration to 0.2% DMSO in all wells.
After 24 h incubation at 37° C., 5% CO2, 40 μL of supernatant was collected per well and transferred to a new 384 well plate that was then stored at −20° C. until further use.
For the readout, supernatant samples were thawed on ice and 5 μL sample was transferred from each well to a new 384-well plate. 20 μL of Quanti-Luc solution (Quanti-Luc powder (Invivogen, Cat #rep-glc1) dissolved in 25 mL sterile water as indicated by the manufacturer) was added to each well after which luminescence was immediately measured on an Envision instrument.
To measure the inhibition of LPS/TNFα/IL-1β-induced NFκB-reporter activity, percentage inhibition (PIN) values were calculated for all concentrations tested, compared to controls. […]

With `CNC(=O)c1cc2nc(CCC(C)(C)O)cn2cc1NC(=O)c1cccc(C(F)(F)F)n1` [Compound 2, 2-(3-hydroxy-3-methyl-butyl)-N-methyl-6-[[6-(trifluoromethyl)pyridine-2-carbonyl]amino]imidazo[1,2-a]pyridine-7-carboxamide] the “effect on bone erosion Larsen Score” value [1] was “statistically significant effect”.

For `CCOc1c(NC(=O)c2cccn(C3CC3)c2=O)cn2cc(CCS(C)(=O)=O)nc2c1F` [Compound 39, 1-cyclopropyl-N-[7-ethoxy-8-fluoro-2-(2-methylsulfonylethyl)imidazo[1,2-a]pyridin-6-yl]-2-oxo-pyridine-3-carboxamide], the EC50 ([2]; IL-1β 3 ng/mL, read-out: IL-1β driven NFκB-reporter activity, average pEC50 (converted)) was 0.0631 µM, the EC50 ([2]; LPS 2.5 ng/mL, read-out: LPS driven NFκB-reporter activity, average pEC50 (converted)) was 0.316 µM and the “TNFα mediated NFκB-reporter activity” value ([2]; TNFα 10 ng/mL) was “no activity was observed”.
